The supplement of paper PMC6045584
± gives the standard deviation of the averaged measurements.

The test systems below were run with CC(=O)c1c(C)c2cnc(Nc3ccc(N4CCNCC4)cn3)nc2n(C2CCCC2)c1=O (assay: surviving fraction relative to DMSO-only wells; higher = less growth inhibition). Details: 0.5 nM; exposure time: 5 days.
Outline: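 Tumour cell lines in log phase were plated in 384-well plates at 250–500 cells per well, then, after 24 hours, exposed continuously for five days to inhibitors at 0.5, 1, 5, 10, 50, 100, 500 and 1000 nM. Viability came from CellTiter-Glo luminescence, and surviving fraction is that signal normalised to the median of DMSO-only wells. Plates were read after 10 minutes at room temperature, and each line, screened three times, was kept only when replicate Pearson r was >0.7 and median Z' was >0.3.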
Work on HSSYII SYNOVIAL yielded a surviving fraction of 0.986 ± 0.015.
MG63 BONE showed a surviving fraction of 1.033 ± 0.0085.
Work on HS57T BREAST yielded a surviving fraction of 1.02 ± 0.025.
For SUM159 BREAST, the surviving fraction was 0.932 ± 0.26.
HCC1395 BREAST gave a surviving fraction of 1.22 ± 0.076.
Work on SUM149.B1*.S BREAST yielded a surviving fraction of 1.13 ± 0.034.
MDAMB453 BREAST was tested, and the surviving fraction was 1.05 ± 0.018.
Work on SCC90 HEADNECK yielded a surviving fraction of 1.092 ± 0.0083.
HMLE3 BREAST showed a surviving fraction of 1.05 ± 0.084.
HCC70 BREAST showed a surviving fraction of 1.02 ± 0.051.
LNCAP PROSTATE showed a surviving fraction of 0.953 ± 0.0097.
With HCT15 LARGE INTESTINE the surviving fraction was 1.09 ± 0.044.
For MHM BONE, the surviving fraction was 1.01 ± 0.029.
Work on VCAP PROSTATE yielded a surviving fraction of 1.08 ± 0.018.

Same assay, conditions: 1 nM; exposure time: 5 days
In the case of HSSYII SYNOVIAL, the surviving fraction is reported as 0.935 ± 0.028.
Test System MG63 BONE has a surviving fraction of 1.01 ± 0.044.
HS57T BREAST was tested, and the surviving fraction was 1.08 ± 0.097.
SUM159 BREAST showed a surviving fraction of 0.942 ± 0.23.
In the case of HCC1395 BREAST, the surviving fraction is reported as 0.965 ± 0.17.
Work on SUM149.B1*.S BREAST yielded a surviving fraction of 1.07 ± 0.013.
MDAMB453 BREAST was tested, and the surviving fraction was 1.04 ± 0.043.
For SCC90 HEADNECK, the surviving fraction was 1.1 ± 0.11.
For HMLE3 BREAST, the surviving fraction was 1.08 ± 0.081.
In the case of HCC70 BREAST, the surviving fraction is reported as 0.999 ± 0.056.
Work on LNCAP PROSTATE yielded a surviving fraction of 0.975 ± 0.087.
Work on HCT15 LARGE INTESTINE yielded a surviving fraction of 1.05 ± 0.028.
In the case of MHM BONE, the surviving fraction is reported as 0.98 ± 0.018.
For VCAP PROSTATE, the surviving fraction was 1.08 ± 0.025.

Same assay, conditions: 5 nM; exposure time: 5 days
HSSYII SYNOVIAL was tested, and the surviving fraction was 0.975 ± 0.035.
Work on MG63 BONE yielded a surviving fraction of 1.039 ± 0.0042.
With HS57T BREAST the surviving fraction was 1.11 ± 0.052.
With SUM159 BREAST the surviving fraction was 0.951 ± 0.18.
Test System HCC1395 BREAST has a surviving fraction of 1.19 ± 0.088.
Work on SUM149.B1*.S BREAST yielded a surviving fraction of 1.11 ± 0.018.
For MDAMB453 BREAST, the surviving fraction was 1.07 ± 0.026.
SCC90 HEADNECK showed a surviving fraction of 1.12 ± 0.1.
Test System HMLE3 BREAST has a surviving fraction of 1.05 ± 0.026.
Test System HCC70 BREAST has a surviving fraction of 1.13 ± 0.032.
In the case of LNCAP PROSTATE, the surviving fraction is reported as 0.854 ± 0.13.
Test System HCT15 LARGE INTESTINE has a surviving fraction of 1.06 ± 0.025.
For MHM BONE, the surviving fraction was 1.037 ± 0.0076.
VCAP PROSTATE was tested, and the surviving fraction was 1.14 ± 0.076.

Same assay, conditions: 10 nM; exposure time: 5 days
HSSYII SYNOVIAL gave a surviving fraction of 1 ± 0.019.
In the case of MG63 BONE, the surviving fraction is reported as 1.04 ± 0.021.
HS57T BREAST was tested, and the surviving fraction was 1.1 ± 0.031.
Test System SUM159 BREAST has a surviving fraction of 0.893 ± 0.28.
Test System HCC1395 BREAST has a surviving fraction of 1.13 ± 0.087.
In the case of SUM149.B1*.S BREAST, the surviving fraction is reported as 1.07 ± 0.019.
For MDAMB453 BREAST, the surviving fraction was 1.11 ± 0.044.
SCC90 HEADNECK showed a surviving fraction of 1.15 ± 0.025.
Test System HMLE3 BREAST has a surviving fraction of 1.03 ± 0.043.
For HCC70 BREAST, the surviving fraction was 1.05 ± 0.034.
In the case of LNCAP PROSTATE, the surviving fraction is reported as 0.857 ± 0.11.
Test System HCT15 LARGE INTESTINE has a surviving fraction of 1.03 ± 0.052.
Work on MHM BONE yielded a surviving fraction of 1.03 ± 0.011.
For VCAP PROSTATE, the surviving fraction was 1.17 ± 0.053.

Same assay, conditions: 50 nM; exposure time: 5 days
For HSSYII SYNOVIAL, the surviving fraction was 0.892 ± 0.045.
MG63 BONE showed a surviving fraction of 1.07 ± 0.035.
HS57T BREAST gave a surviving fraction of 1.16 ± 0.043.
Work on SUM159 BREAST yielded a surviving fraction of 0.916 ± 0.3.
With HCC1395 BREAST the surviving fraction was 1.28 ± 0.09.
In the case of SUM149.B1*.S BREAST, the surviving fraction is reported as 1.19 ± 0.056.
MDAMB453 BREAST showed a surviving fraction of 1.15 ± 0.1.
In the case of SCC90 HEADNECK, the surviving fraction is reported as 1.06 ± 0.042.
Work on HMLE3 BREAST yielded a surviving fraction of 1.1 ± 0.099.
In the case of HCC70 BREAST, the surviving fraction is reported as 1.155 ± 0.0084.
LNCAP PROSTATE gave a surviving fraction of 0.952 ± 0.15.
For HCT15 LARGE INTESTINE, the surviving fraction was 1.14 ± 0.055.
MHM BONE gave a surviving fraction of 1.05 ± 0.019.
Test System VCAP PROSTATE has a surviving fraction of 1.1 ± 0.13.

Same assay, conditions: 100 nM; exposure time: 5 days
HSSYII SYNOVIAL showed a surviving fraction of 0.914 ± 0.07.
Test System MG63 BONE has a surviving fraction of 1.07 ± 0.031.
In the case of HS57T BREAST, the surviving fraction is reported as 1.11 ± 0.032.
In the case of SUM159 BREAST, the surviving fraction is reported as 0.842 ± 0.43.
Test System HCC1395 BREAST has a surviving fraction of 1.1 ± 0.11.
SUM149.B1*.S BREAST gave a surviving fraction of 1.22 ± 0.058.
MDAMB453 BREAST showed a surviving fraction of 1.11 ± 0.061.
SCC90 HEADNECK gave a surviving fraction of 1.19 ± 0.14.
Test System HMLE3 BREAST has a surviving fraction of 0.962 ± 0.086.
For HCC70 BREAST, the surviving fraction was 1.08 ± 0.08.
LNCAP PROSTATE showed a surviving fraction of 1.1 ± 0.13.
Work on HCT15 LARGE INTESTINE yielded a surviving fraction of 1.1 ± 0.038.
For MHM BONE, the surviving fraction was 1.03 ± 0.016.
VCAP PROSTATE was tested, and the surviving fraction was 1.18 ± 0.025.

Same assay, conditions: 500 nM; exposure time: 5 days
HSSYII SYNOVIAL gave a surviving fraction of 0.811 ± 0.013.
In the case of MG63 BONE, the surviving fraction is reported as 0.914 ± 0.02.
With HS57T BREAST the surviving fraction was 0.954 ± 0.055.
SUM159 BREAST gave a surviving fraction of 0.943 ± 0.27.
Work on HCC1395 BREAST yielded a surviving fraction of 1.31 ± 0.083.
SUM149.B1*.S BREAST was tested, and the surviving fraction was 1.139 ± 0.011.
MDAMB453 BREAST showed a surviving fraction of 1 ± 0.026.
Test System SCC90 HEADNECK has a surviving fraction of 1.12 ± 0.056.
In the case of HMLE3 BREAST, the surviving fraction is reported as 0.925 ± 0.12.
With HCC70 BREAST the surviving fraction was 0.983 ± 0.066.
In the case of LNCAP PROSTATE, the surviving fraction is reported as 0.961 ± 0.079.
HCT15 LARGE INTESTINE showed a surviving fraction of 1.12 ± 0.058.
With MHM BONE the surviving fraction was 0.966 ± 0.015.
For VCAP PROSTATE, the surviving fraction was 0.829 ± 0.11.

Same assay, conditions: 1000 nM; exposure time: 5 days
In the case of HSSYII SYNOVIAL, the surviving fraction is reported as 0.737 ± 0.045.
MG63 BONE was tested, and the surviving fraction was 0.868 ± 0.034.
In the case of HS57T BREAST, the surviving fraction is reported as 0.96 ± 0.039.
Test System SUM159 BREAST has a surviving fraction of 0.925 ± 0.28.
Test System HCC1395 BREAST has a surviving fraction of 1.34 ± 0.07.
With SUM149.B1*.S BREAST the surviving fraction was 1.08 ± 0.021.
With MDAMB453 BREAST the surviving fraction was 1.01 ± 0.071.
With SCC90 HEADNECK the surviving fraction was 1.13 ± 0.13.
Work on HMLE3 BREAST yielded a surviving fraction of 0.933 ± 0.066.
HCC70 BREAST gave a surviving fraction of 1.1 ± 0.055.
LNCAP PROSTATE gave a surviving fraction of 0.945 ± 0.16.
HCT15 LARGE INTESTINE gave a surviving fraction of 1.11 ± 0.035.
With MHM BONE the surviving fraction was 0.985 ± 0.044.
VCAP PROSTATE showed a surviving fraction of 0.773 ± 0.0044.
